Test results: patent publication US7119256B2, “Gene encoding acetolactate synthase” (priority 2000, dated 2006)
“And” between values parts separate entries of the source, which are not always exact repeats. Identical values can stand only once.

Legend:
ALS isozyme I = biological target: T1, ALS isozyme I (Escherichia coli, UniProt P08142+P0ADF8); assay: Inhibition by valine of ALS activity derived from E. coli (no plasmid); format: biochemical
T1 construct: CK1 (without plasmid); endogenous in cells
T1 sequence (P0ADF8 whole entry): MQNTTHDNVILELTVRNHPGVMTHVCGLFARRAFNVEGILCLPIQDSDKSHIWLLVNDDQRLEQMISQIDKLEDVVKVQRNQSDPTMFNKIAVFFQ
T1 sequence (P08142 whole entry): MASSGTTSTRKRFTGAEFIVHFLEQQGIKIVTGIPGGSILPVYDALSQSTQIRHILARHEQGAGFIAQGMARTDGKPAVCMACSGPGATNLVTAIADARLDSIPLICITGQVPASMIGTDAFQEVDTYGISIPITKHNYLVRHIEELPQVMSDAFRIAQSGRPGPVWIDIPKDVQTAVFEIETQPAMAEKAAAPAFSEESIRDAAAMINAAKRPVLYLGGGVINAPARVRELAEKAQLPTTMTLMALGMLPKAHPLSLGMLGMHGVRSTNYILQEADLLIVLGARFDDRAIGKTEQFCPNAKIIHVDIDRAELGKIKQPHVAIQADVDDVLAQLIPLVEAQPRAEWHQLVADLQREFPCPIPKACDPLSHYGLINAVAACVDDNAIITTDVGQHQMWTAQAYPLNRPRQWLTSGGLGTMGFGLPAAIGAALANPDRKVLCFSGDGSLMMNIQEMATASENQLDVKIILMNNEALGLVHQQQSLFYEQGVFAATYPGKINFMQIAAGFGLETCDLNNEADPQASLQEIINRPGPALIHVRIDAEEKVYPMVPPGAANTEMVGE
Description: (§1) ALS activity resulting from the mutant ALS protein contained in the eluted fractions apportioned into each test tube for apportion was measured as follows. A reaction solution to be used in a measurement reaction was prepared by mixing an eluted fraction to be measured with a solution comprising 20 mM sodium pyruvate, 0.5 mM TPP, 0.5 mM MgCl2, 10 μM FAD and 20 mM potassium phosphate buffer (pH 7.5). One ml of this reaction solution was used. After the eluted fraction to be measured was added, the measurement reaction was performed at 30° C. for 40 to 60 min. Then, the reaction was stopped by addition of 0.1 ml of 6N sulfuric acid (or 0.25 N sodium hydroxide).
The prepared ALS enzyme contains ALS activity derived from E. coli.

S627I mutant ALS = biological target: T2, S627I mutant ALS (Oryza sativa subsp. japonica, UniProt Q6K2E8, S627I); assay: Herbicide sensitivity of crude ALS with S627I mutation only, 1 mM valine; format: biochemical, rice; conditions: crude enzyme
T2 construct: one type of cDNA containing a full length ALS gene could be obtained from a cDNA library derived from the wild type; made in house; host or cells: E. coli JM 109, pGEX-2T backbone; crude enzyme solution
T2 sequence (Q6K2E8 44-644 S627I): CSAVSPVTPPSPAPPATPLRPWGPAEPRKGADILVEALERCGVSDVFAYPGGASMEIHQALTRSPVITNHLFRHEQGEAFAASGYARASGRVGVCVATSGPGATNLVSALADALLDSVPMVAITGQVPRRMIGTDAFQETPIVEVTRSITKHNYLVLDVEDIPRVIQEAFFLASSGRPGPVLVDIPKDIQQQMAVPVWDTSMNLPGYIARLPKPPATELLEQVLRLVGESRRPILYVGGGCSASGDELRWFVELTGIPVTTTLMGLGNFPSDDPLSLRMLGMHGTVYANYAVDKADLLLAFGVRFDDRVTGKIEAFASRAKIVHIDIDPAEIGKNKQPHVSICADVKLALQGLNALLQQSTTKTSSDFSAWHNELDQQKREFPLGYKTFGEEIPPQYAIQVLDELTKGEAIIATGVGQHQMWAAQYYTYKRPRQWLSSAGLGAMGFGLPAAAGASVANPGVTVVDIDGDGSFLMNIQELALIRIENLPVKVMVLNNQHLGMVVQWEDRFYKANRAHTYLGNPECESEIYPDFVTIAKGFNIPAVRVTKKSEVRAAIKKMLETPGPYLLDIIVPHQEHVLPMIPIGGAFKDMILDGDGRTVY
Description: (§2) A plasmid having W548L mutant ALS gene or a plasmid having S627I mutant ALS gene was transformed into E. coli strain JM 109. The colonies obtained from transformation were subjected to liquid culture, expression of GST induction protein was induced in the same manner as in Examples 4 and 5, a crude enzyme solution was prepared, and then herbicide sensitivity of ALS was examined in the presence of 1 mM valine.

W548L mutant ALS = biological target: T3, W548L mutant ALS (Oryza sativa subsp. japonica, UniProt Q6K2E8, W548L); assay: Herbicide sensitivity of crude ALS with W548L mutation only, 1 mM valine; format: biochemical, rice; conditions: crude enzyme
T3 construct: one type of cDNA containing a full length ALS gene could be obtained from a cDNA library derived from the wild type; made in house; host or cells: E. coli JM 109, pGEX-2T backbone (pGEX-2T-wALS); crude enzyme solution
T3 sequence (Q6K2E8 44-644 W548L): as the sequence (Q6K2E8 44-644 S627I) above, with W505L, I584S counted along it
Description: as §2

mutant ALS protein [1] = biological target: mutant ALS protein (Oryza sativa subsp. japonica, UniProt Q6K2E8, S627I/W548L); assay: Herbicide sensitivity of ALS partially purified from the resistant mutant (acetoin colorimetric ALS activity); format: biochemical, rice (Kinmaze); design: from tissue; host or cells: resistant mutant rice (Kinmaze) cultured cells, liquid culture; ammonium sulfate, Sephadex G-25, HiTrap Q
Chain of mutant ALS protein (Oryza sativa subsp. japonica, UniProt Q6K2E8, S627I/W548L) (Q6K2E8 44-644 W548L/S627I): as the sequence (Q6K2E8 44-644 S627I) above, with W505L counted along it
Description: (§3) First, 200 g or more of resistant mutant was prepared by a liquid culture method (no supplementation with bispyribac-sodium), the culture having a composition as shown in Table 1 but without Gelrite. Then, about 150 g of the resistant mutant was homogenized using Hiscotron in a volume of buffer-1 [100 mM potassium phosphate buffer (pH 7.5) containing 20% (v/v) glycerol, 0.5 mM thiamin pyrophosphate (TPP), 10 μM flavin adenine dinucleotide (FAD), 0.5 mM MgCl2, and a volume of polyvinyl polypyrrolidone one-tenth that of tissue volume] 3-fold greater than tissue volume. The homogenate was filtered through nylon gauze, and then centrifuged at 15,000×g for 20 min. Ammonium sulfate was added to the centrifuged supernatant to 50% saturation, and then allowed to stand in ice for approximately 1 hour. The mixture was again centrifuged at 15,000×g for 20 min, and then the precipitated fraction was dissolved in about 30 ml of buffer-2 [10 mM Tris hydrochloric acid buffer (pH 7.5) containing 20% (v/v) glycerol, 0.5 mM TPP and 0.5 mM MgCl2]. […]
(§4) Next, the protein concentration of the crude enzyme solution was measured by the Bradford method according to the manual of Bio-Rad Protein Assay. […]
as §1, with “One ml of this reaction solution was used.” left out, “Then, the reaction was stopped by addition of 0.1 ml of 6N sulfuric acid (or 0.25 N sodium hydroxide).” left out
(§5) Then, to quantify acetoin contained in the reaction solution, 1 ml of 0.5% (w/v) creatine and 1 ml of 5% (w/v) α-naphthol dissolved in 2.5 N sodium hydroxide was added to the reaction solution, followed by incubation at 37° C. for 10 min. Acetoin was then quantified by color comparison of the absorbance (at 525 nm) of the reaction solution, thereby evaluating ALS activity. […]

wild type ALS protein = biological target: T4, wild type ALS protein (Oryza sativa subsp. japonica, UniProt Q6K2E8); assay: Herbicide sensitivity of partially purified wild type ALS protein (acetoin colorimetric ALS activity); format: biochemical, rice (Kinmaze); design: the wild type ALS protein was separated and purified in the same manner and used for the experiment; from tissue; host or cells: wild type rice (Kinmaze) cultured cells, liquid culture; ammonium sulfate, Sephadex G-25, HiTrap Q
T4 sequence (Q6K2E8 44-644): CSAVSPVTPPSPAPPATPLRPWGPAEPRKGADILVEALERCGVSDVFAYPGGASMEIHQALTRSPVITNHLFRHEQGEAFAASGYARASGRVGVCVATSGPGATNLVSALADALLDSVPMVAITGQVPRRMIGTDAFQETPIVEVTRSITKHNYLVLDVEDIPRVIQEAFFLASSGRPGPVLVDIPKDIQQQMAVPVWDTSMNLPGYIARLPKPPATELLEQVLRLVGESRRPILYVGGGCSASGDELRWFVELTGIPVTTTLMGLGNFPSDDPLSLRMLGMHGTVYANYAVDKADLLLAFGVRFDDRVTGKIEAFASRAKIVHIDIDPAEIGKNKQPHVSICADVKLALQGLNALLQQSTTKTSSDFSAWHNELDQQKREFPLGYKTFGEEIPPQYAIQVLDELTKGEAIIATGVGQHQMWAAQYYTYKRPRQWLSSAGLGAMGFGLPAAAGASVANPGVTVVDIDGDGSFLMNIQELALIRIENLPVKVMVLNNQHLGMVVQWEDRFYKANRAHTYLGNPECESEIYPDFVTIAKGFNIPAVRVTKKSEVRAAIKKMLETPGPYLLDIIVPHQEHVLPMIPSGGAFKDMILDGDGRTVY

mutant ALS protein [2] = assay: Herbicide sensitivity of ALS partially purified from the resistant mutant (acetoin colorimetric ALS activity); format: biochemical, rice (Kinmaze)
Description: as §3, §4
as §1, with “One ml of this reaction solution was used.” left out, “Then, the reaction was stopped by addition of 0.1 ml of 6N sulfuric acid (or 0.25 N sodium hydroxide).” left out
as §5

[3] = 1 mM Valine, E. coli without plasmid

Row | SMILES | ALS activity (ALS isozyme I; [3]) | Inhibition rate (ALS isozyme I; [3]) [%] | inhibition at 1000 µM (ALS isozyme I; 1 mM Valine, E. coli without plasmid, read-out: Inhibition rate) [%] | inhibition of ALS activity derived from E. coli (ALS isozyme I; 1 mM valine) | resistance imparted by S627I mutation alone (S627I mutant ALS) | resistance imparted by W548L mutation alone (W548L mutant ALS) | IC50 (mutant ALS protein [1]) [µM] | IC50 (wild type ALS protein) [µM] | RS ratio Resistant mutant: I50 (resistant mutant)/I50 (wild type) (mutant ALS protein [2])
1 | CC(C)[C@H](N)C(=O)O [Valine, valine] | 0.1768 OD525/40 min/0.05 ml and 0.1831 OD525/40 min/0.05 ml | 88 | 86 | almost completely inhibited | – | – | – | – | –
2 | CC(C)C1(C)N=C(c2nc3ccccc3cc2C(=O)O)NC1=O (stereo not drawn) [Imazaquin, imazaquin] | – | – | – | – | results were similar to those for bispyribac-sodium | results were similar to those for bispyribac-sodium | 16.7 | 1.48 | 11.3
